{"source": "patent US8735622B2", "about": "“Histone demethylase inhibitors and methods for using the same” (The Regents of the University of Colorado, a body corporate, priority 2011, dated 2014)", "key": {"[1]": {"system": "histone methylation marks in KYSE150 cells", "assay": "Western blotting of histone methylation marks in KYSE150 cells", "type": "cell-based, human", "conditions": "KYSE150 cells, 5, 10, 15 μM, 48 hours", "experimental": "Next, the cellular effects of methylstat were evaluated on a variety of histone methylation marks in KYSE150 cells. DMOG and DFO were used as positive controls, since they are known cell-active inhibitors of iron (II)- and α-ketoglutarate-dependent dioxygenases.\nTotal lysates of cells were generated from the cells lysed in CelLytic M Cell Lysis (Sigma) with protease inhibitor cocktail (Sigma), mixed with 2×LSB buffer (100 mM Tris-HCl pH 6.8, 200 mM DTT, 4% SDS, 20% glycerol and 0.2% bromophenol blue) and boiled for 5 min before SDS-PAGE. BCA assay (Thermo) was applied for protein qualification.\nHistone extraction was generated from the cells lysed in Triton Extraction Buffer (TEB: PBS containing 0.5% Triton X 100 (v/v), 2 mM phenylmethylsulfonyl fluoride (PMSF), 0.02% (w/v) NaN3) at the density of 10^7 cells/mL. 0.2 N HCl was used to extract histone over night at 4° C."}, "[2]": {"target": "T1, human GASC1 (GST-GASC1(1-420)) (Homo sapiens, UniProt Q9H3R0)", "T1 construct": "corresponding to amino acid 1-420 was cloned and purified; made in house; host or cells: Escherichia coli BL-21", "T1 sequence (Q9H3R0 1-420)": "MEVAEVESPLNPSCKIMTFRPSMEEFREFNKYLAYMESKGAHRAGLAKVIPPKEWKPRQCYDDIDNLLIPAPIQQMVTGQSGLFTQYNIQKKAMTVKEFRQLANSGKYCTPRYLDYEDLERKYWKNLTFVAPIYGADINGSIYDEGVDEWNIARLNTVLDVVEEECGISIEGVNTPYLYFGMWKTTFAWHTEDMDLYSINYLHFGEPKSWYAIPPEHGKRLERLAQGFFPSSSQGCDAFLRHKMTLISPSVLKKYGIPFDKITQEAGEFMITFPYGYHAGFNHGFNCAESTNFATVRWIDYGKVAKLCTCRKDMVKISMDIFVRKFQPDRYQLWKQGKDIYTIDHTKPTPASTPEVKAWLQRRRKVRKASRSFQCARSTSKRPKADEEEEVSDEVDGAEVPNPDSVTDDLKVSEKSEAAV", "assay": "GASC1 enzyme activity assay (DELFIA)", "type": "biochemical", "conditions": "in vitro", "experimental": "In order to evaluate the inhibitory activity of 1 in vitro, a GST-fusion protein of the catalytic N-terminus of human GASC1 (gene amplified in squamous cell carcinoma 1) corresponding to amino acid 1-420 was cloned and purified. […] To evaluate the enzyme specificity of 1, the activity of 1 was examined against several other related enzymes in vitro.\nThe enzyme activity assays for GASC1 and JMJD2A were established on the DELFIA platform. DELFIA assays were performed in white, opaque 384-well plates coated with Streptavidin (Perkin Elmer). GST-GASC1(1-420) was diluted to 200 ng/well in 20 mM Tris HCl pH 8.5/2 mM glutathione and added in a volume of 20 μL. Blank wells received Tris/glutathione buffer only. Test compounds were diluted in DMSO and […] was pinned into the wells. Blank and control wells received only compound buffer. The reactions were initiated by the addition of 500 nM biotin-H3(1-20)K9me3 substrate, 10 μM FeSO4, 100 μM alpha-ketoglutarate in a volume of 20 μL, and incubated at room temperature for 60 minutes. The plates were washed 3 times with 100 μL of Wash Buffer (50 mM Tris pH 7.4, 150 mM NaCl, 0.05% Tween 20, 0.2% BSA). […] Time resolved fluorescence was measured after 45 minutes on an Envision Microplate Imager (Perkin Elmer Life Sciences) with 400 μs delay, excitation at 360 nm, and emission at 620 nm."}, "KYSE150 cells": {"system": "KYSE150 cells", "assay": "Cell viability / growth inhibition assay (CellTiter-Glo)", "type": "cell-based, human", "conditions": "48 hours", "source_text": "To examine the cellular activity of the compounds of the invention, oesophageal carcinoma cell line KYSE150 was used in a growth inhibition assay because KYSE150 cells have been reported to contain several copies of the GASC1 gene, and it has been reported that inhibition of GASC1 expression using short hairpin RNA causes a significant reduction of proliferation in KYSE150 cells. […] Without being bound by any theory, it is believed that this low activity in cells was possibly due to the poor cellular uptake of the zwitterion form in which it typically exists under physiological conditions. Therefore, its methyl ester prodrug 2 (FIG. 1a), called methylstat was tested.\nTo screen and validate the cellular toxicity of compounds, a cell viability assay was carried out using CellTiter-Glo luminescent cell viability assay kit (Promega, Madison USA). KYSE150 cells were seeded on blank-walled 384-well plates with KYSE medium at densities of 1,000 cells/well. The medium volume for each well was 40 μL. Cells were incubated at 37° C. in 5% CO2/95% air for 24 hours. The medium was removed from each well and replaced with 38 μL, of warmed fresh medium and 2 μL, compound solution in 2% DMSO/98% H2O. The compounds were added into medium at different concentrations with the final concentration of DMSO as 0.1%. After incubation at 37° C. with 5% CO2/95% air for another 48 hours, the plates were equilibrated to room temperature for 30 minutes. 40 μL, of CellTiter-Glo reagent (Promega, Madison USA) was added to each well and mixed for 2 minutes on an orbital shaker. The plate was incubated at room temperature for another 10 minutes to stabilize luminescent signal. The luminescence of each sample was measured in a plate-reading illuminometer (Beckman Coulter DTX 880) with parameters of 1-minute lag time and 0.1 second/well read time. The experiments were performed in triplicate and repeated on two separately initiated cultures."}}, "note": "Entries after “also recorded” stand apart in the source; their conditions may differ."}
{"smiles": "COC(=O)/C=C/C(=O)N(O)CCCCNCc1ccc(COC(=O)Nc2cccc3ccccc23)cc1", "note": "[methylstat]", "values": [{"measurement": "hypermethylation of histone proteins (Western blot)", "setting": "[1]", "value": "induced hypermethylation of lysine residues; also recorded: induced hypermethylations of histone proteins in a concentration-dependent manner"}, {"measurement": "inhibition of enzymatic activity of GASC1", "setting": "[2]", "value": "did not significantly inhibit"}, {"measurement": "KYSE150 cell growth inhibition", "setting": "KYSE150 cells; compound 1 at up to 100 μM", "value": "inhibits KYSE150 cell growth"}, {"measurement": "GI50", "setting": "KYSE150 cells; Homo sapiens, KYSE-150, KYSE150 cells, read-out: half maximal growth inhibitory concentration (GI50)", "value": "~5.1", "unit": "µM"}]}
